System: 6-OHDA-lesioned juvenile rats
Assay: Locomotor activity of juvenile rats with neonatal 6-OHDA lesions (model of ADHD)
Assay type: in vivo, rat
Method: The behavioral effects of (1R,5S)-(+)-1-(naphthalen-2-yl)-3-azabicyclo[3.1.0]hexane were evaluated in a model of ADHD, which can be simulated in juvenile rates with neonatal 6-hydroxydopamine (6-OHDA) lesions (Davids et al., 2003). In this animal model, the NE neurons are protected from the neurotoxic effects of 6-OHDA by pretreatment with the NE transporter inhibitor desipramine, so the NE system is largely intact and can respond to NE transporter inhibitors (Davids et al., 2002). Furthermore, the 6-OHDA lesions produce learning and memory deficits in learning models including the T maze, and active and passive avoidance tasks (Shaywitz et al., 1978; Wool et al., 1987; Takasuna and Iwasaki, 1996). Performance in these learning and memory models was improved by administration of stimulants (Shaywitz et al., 1978; Wool et al., 1987). Thus, this model incorporates both hyperactivity and learning deficits found in ADHD.
Methods of lesioning neonatal rats with 6-OHDA were carried out as detailed in Zhang et al. (2001). Briefly, on postnatal day 1 (PD 1), male Sprague-Dawley rat pups were randomly assigned to a nursing dam (10/dam). On PD 5, pups receive a subcutaneous injection of 25 mg/kg desipramine hydrochloride to protect noradrenergic neurons, followed in 45 min. by randomly assigned intracisternal injection of vehicle or 6-OHDA hydrobromide (100 μg free base) under hypothermic anesthesia. Pups were returned to nursing dams immediately after the intracranial injections. Locomotor activity was monitored individually for 90 min. in the periadolescent period on PD 25, using a microcomputer controlled infrared photobeam activity monitoring system. Locomotor activity was defined as breaking of consecutive photobeams and the activity accumulated in 5 minute bins. Behavioral testing was conducted in a novel environment (transparent plastic cages containing fresh bedding) within a grid of horizontal infrared beams. Each dose of (1R,5S)-(+)-1-(naphthalen-2-yl)-3-azabicyclo[3.1.0]hexane (1, 3 and 10 mg/kg) or methylphenidate (3 mg/kg) was dissolved in saline and given i.p. immediately prior to testing. The effects of sham versus 6-OHDA lesions on dopamine neurons in rats were quantified as decrements of DA transporters labeled with [31-1]2-(3-carbomethoxy-3-β-[4′-iodophenyl]tropane ([^3H]β-CIT), a selective DA transporter radioligand (Kula et al. 1999). Sections were preincubated (60 min., room temp [RT]) in 50 mM Tris-HCl buffer (pH 7.7) containing 120 mM NaCl and 4 mM MgCl2, then in fresh buffer (60 min) containing 2 nM [3H](3-CIT. Nonspecific binding was defined with 1 μM GBR-12909. Slides were then washed (2×5 min) in ice-cold buffer, dipped in ice-cold water, and air-dried. Radiolabeled slides and calibrated [^3H]standards were exposed to [^3H]sensitive films for 10-14 d at 4° C. Tritium-sensitive Hyperfilms were developed and fixed in Kodak D-19 for 5 min. at RT. Images were quantified with a computer-controlled MCID image analyzer. Brain regions of interest were outlined and their optical density was measured with two sections representing total binding, with two samples representing nonspecific binding. Optical density of sampled regions was measured and the amount of ligand bound within each area was calculated as nCi/mg tissue. Mean values of non-specific binding in each region were subtracted from the mean total binding to determine specific binding, which was converted into fmol/mg of radioligand bound.

SMILES: c1ccc2cc([C@]34CNC[C@H]3C4)ccc2c1 [(1R,5S)-(+)-1-(naphthalen-2-yl)-3-azabicyclo[3.1.0]hexane]
- time over which locomotor activity was significantly reduced (1 mg/kg i.p., PD 25, 90 min test, vs saline): 35 min
- time over which locomotor hyperactivity was significantly attenuated (3 mg/kg i.p., PD 25, 90 min test): 45 min
- time over which locomotor activity was significantly reduced (10 mg/kg i.p., PD 25, 90 min test): 90 min
- effect on locomotor hyperactivity (1, 3 and 10 mg/kg i.p.): dose-dependently inhibited the locomotor hyperactivity
- locomotor activity (FIGS. 7A and 7B) (6-OHDA-lesioned juvenile rats at PD25, p<0.05 versus vehicle): reduced locomotor activity
